From patent US8802688B2, “Substituted acetyl-coa carboxylase inhibitors” (Pfizer Inc., priority 2011, dated 2014)

What was measured:
[1] = biological target: T1, recombinant human ACC2 (rhACC2) (Homo sapiens, UniProt O00763, V2141I); assay: recombinant hACC2 Transcreener ADP detection FP assay; assay type: biochemical; details: 50 μM ATP, 30 μM acetyl-CoA
T1 construct: a full length Cytomax clone of ACC2 was purchased from Cambridge Bioscience Limited; made in house; host or cells: CHO cells, tetracycline-induced (PcDNA5 FRT TO-TOPO)
T1 sequence (O00763 whole entry V2141I): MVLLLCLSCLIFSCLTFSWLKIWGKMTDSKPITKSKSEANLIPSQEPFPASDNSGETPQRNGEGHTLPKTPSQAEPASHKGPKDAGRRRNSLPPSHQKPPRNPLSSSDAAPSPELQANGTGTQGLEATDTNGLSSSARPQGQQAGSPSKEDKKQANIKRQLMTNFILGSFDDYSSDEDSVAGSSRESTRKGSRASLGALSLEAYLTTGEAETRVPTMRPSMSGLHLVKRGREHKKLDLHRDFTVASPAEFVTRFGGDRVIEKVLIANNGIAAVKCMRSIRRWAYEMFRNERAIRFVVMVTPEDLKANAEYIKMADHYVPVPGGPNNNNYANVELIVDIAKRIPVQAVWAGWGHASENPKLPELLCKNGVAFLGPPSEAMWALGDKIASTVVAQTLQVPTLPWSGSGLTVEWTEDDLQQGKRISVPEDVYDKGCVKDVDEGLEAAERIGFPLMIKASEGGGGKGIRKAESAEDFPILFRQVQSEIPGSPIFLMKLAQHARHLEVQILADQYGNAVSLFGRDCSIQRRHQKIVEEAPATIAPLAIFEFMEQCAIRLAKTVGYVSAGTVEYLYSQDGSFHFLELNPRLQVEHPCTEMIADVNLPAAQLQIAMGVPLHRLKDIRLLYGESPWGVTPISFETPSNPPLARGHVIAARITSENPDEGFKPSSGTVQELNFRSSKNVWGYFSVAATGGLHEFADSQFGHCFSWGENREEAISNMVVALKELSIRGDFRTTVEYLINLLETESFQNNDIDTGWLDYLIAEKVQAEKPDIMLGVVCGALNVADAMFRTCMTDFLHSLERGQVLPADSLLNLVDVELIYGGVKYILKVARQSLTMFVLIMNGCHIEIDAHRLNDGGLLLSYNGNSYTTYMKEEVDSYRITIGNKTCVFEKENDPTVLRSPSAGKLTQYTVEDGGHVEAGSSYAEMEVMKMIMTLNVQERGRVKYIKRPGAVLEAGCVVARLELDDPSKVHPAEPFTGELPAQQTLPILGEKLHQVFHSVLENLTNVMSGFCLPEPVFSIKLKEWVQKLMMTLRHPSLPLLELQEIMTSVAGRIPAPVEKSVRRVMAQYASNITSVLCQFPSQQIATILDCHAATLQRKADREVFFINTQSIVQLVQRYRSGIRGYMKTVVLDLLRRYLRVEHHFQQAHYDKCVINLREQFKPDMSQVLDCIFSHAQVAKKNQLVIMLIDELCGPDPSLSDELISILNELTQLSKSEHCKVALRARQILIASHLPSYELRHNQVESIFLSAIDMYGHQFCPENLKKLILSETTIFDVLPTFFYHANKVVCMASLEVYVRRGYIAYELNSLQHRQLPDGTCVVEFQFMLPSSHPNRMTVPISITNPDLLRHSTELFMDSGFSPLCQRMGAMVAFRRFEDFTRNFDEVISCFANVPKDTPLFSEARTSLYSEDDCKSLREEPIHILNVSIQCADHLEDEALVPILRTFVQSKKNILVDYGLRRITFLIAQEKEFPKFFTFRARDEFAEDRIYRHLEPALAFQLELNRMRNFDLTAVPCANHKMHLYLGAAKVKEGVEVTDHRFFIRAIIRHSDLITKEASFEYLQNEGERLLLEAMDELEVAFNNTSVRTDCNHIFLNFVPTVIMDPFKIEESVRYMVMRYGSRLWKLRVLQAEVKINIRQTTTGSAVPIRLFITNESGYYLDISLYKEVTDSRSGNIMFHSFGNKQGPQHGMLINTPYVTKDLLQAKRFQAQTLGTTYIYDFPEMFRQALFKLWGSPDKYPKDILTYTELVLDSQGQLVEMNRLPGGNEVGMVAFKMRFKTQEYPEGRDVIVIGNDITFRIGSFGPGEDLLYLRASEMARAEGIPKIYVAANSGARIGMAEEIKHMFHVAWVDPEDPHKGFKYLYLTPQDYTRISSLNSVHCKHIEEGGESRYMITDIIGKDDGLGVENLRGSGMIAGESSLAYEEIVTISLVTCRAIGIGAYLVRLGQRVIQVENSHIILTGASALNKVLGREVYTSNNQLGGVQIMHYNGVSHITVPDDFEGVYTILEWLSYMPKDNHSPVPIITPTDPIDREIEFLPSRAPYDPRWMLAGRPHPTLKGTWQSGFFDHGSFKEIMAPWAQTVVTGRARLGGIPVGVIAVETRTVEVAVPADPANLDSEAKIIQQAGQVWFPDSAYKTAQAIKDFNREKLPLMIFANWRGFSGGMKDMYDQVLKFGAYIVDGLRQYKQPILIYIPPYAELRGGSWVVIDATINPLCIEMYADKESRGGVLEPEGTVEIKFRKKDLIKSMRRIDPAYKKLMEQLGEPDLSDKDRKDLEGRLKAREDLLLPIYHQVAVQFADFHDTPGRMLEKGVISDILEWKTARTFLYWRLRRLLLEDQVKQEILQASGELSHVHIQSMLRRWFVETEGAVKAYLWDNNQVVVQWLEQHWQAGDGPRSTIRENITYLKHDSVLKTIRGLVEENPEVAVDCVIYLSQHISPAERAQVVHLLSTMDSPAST
Method: (§1) For example direct inhibition of ACC activity, for the compound of Formula (I) was determined using preparations of recombinant human ACC1 (rhACC1) and recombinant human ACC2 (rhACC2). Representative sequences of the recombinant human ACC1 and ACC2 that can be used in the assay are provided herein as SEQ ID NO. 1 and SEQ. ID NO. 2, respectively.
[3] Preparation of rhACC2. Human ACC2 inhibition was measured using purified recombinant human ACC2 (hrACC2). Briefly, a full length Cytomax clone of ACC2 was purchased from Cambridge Bioscience Limited and was sequenced and subcloned into PcDNA5 FRT TO-TOPO (Invitrogen, Carlsbad, Calif.). The ACC2 was expressed in CHO cells by tetracycline induction and harvested in 5 liters of DMEM/F12 with glutamine, biotin, hygromycin and blasticidin with 1 μg/mL tetracycline (Invitrogen, Carlsbad, Calif.). The conditioned medium containing ACC2 was then applied to a Softlink Soft Release Avidin column (Promega, Madison, Wis.) and eluted with 5 mM biotin. 4 mgs of ACC2 were eluted at a concentration of 0.05 mg/mL (determined by A280) with an estimated purity of 95% ([…]). The purified ACC2 was dialyzed in 50 mM Tris, 200 mM NaCl, 4 mM DTT, 2 mM EDTA, and 5% glycerol. The pooled protein was frozen and stored at −80° C., with no loss of activity upon thawing. For measurement of ACC2 activity and assessment of ACC2 inhibition, test compounds were dissolved in DMSO and added to the rhACC2 enzyme as a 5× stock with a final DMSO concentration of 1%.
[4] Measurement of human ACC2 inhibition. hACC2 was assayed in a Costar #3676 (Costar, Cambridge, Mass.) 384-well plate using the Transcreener ADP detection FP assay kit (Bellbrook Labs, Madison, Wis.) using the manufacturer's recommended conditions for a 50 uM ATP reaction. The final conditions for the assay were 50 mM HEPES, pH 7.2, 5 mM MgCl2, 5 mM tripotassium citrate, 2 mM DTT, 0.1 mg/mL BSA, 30 μM acetyl-CoA, 50 μM ATP, and 8 mM KHCO3. Typically, a 10 μl reaction was run for 50 min at 25° C., and 10 μl of Transcreener stop and detect buffer was added and the combination incubated at room temp for an additional 1 hour. The data was acquired on an Envision Fluorescence reader (Perkinelmer) using a 620 excitation Cy5 FP general dual mirror, 620 excitation Cy5 FP filter, 688 emission (S) and a 688 (P) emission filter.
(§2) The results using the recombinant hACC1 and recombinant hACC2 Transcreener assays described above are summarized in the table below for the Compounds of Formula (I) exemplified in the Examples above.

[2] = biological target: T2, recombinant human ACC1 (rhACC1) (Homo sapiens, UniProt Q13085, DEL44-44); assay: recombinant hACC1 Transcreener ADP detection FP assay; assay type: biochemical; details: 50 μM ATP, 30 μM acetyl-CoA
T2 construct: recombinant baculovirus containing full length human ACC1 cDNA; made in house; host or cells: SF9 insect cells, recombinant baculovirus
Method: as §1
[1] Preparation of rhACC1. Two liters of SF9 cells, infected with recombinant baculovirus containing full length human ACC1 cDNA, were suspended in ice-cold lysis buffer (25 mM Tris, pH 7.5; 150 mM NaCl; 10% glycerol; 5 mM imidazole (EMD Bioscience; Gibbstown, N.J.); 2 mM TCEP (BioVectra; Charlottetown, Canada); Benzonase nuclease (10000 U/100 g cell paste; Novagen; Madison, Wis.); EDTA-free protease inhibitor cocktail (1 tab/50 mL; Roche Diagnostics; Mannheim, Germany). Cells were lysed by 3 cycles of freeze-thaw and centrifuged at 40,000×g for 40 minutes (4° C.). Supernatant was directly loaded onto a HisTrap FF crude column (GE Healthcare; Piscataway, N.J.) and eluted with an imidazole gradient up to 0.5 M over 20 column volumes (CV). ACC1-containing fractions were pooled and diluted 1:5 with 25 mM Tris, pH 7.5, 2 mM TCEP, 10% glycerol and direct loaded onto a CaptoQ (GE Healthcare) column and eluted with an NaCl gradient up to 1 M over 20 CV's. Phosphate groups were removed from purified ACC1 by incubation with lambda phosphatase (100 U/10 μM target protein; New England Biolabs; Beverly, Mass.) for 14 hours at 4° C.; okadaic acid was added (1 μM final concentration; Roche Diagnostics) to inhibit the phosphatase. Purified ACC1 was exchanged into 25 mM Tris, pH 7.5, 2 mM TCEP, 10% glycerol, 0.5 M NaCl by 6 hour dialysis at 4° C. Aliquots were prepared and frozen at −80° C.
[2] Measurement of rhACC1 inhibition. hACC1 was assayed in a Costar #3676 (Costar, Cambridge, Mass.) 384-well plate using the Transcreener ADP detection FP assay kit (Bellbrook Labs, Madison, Wis.) using the manufacturer's recommended conditions for a 50 μM ATP reaction. The final conditions for the assay were 50 mM HEPES, pH 7.2, 10 mM MgCl2, 7.5 mM tripotassium citrate, 2 mM DTT, 0.1 mg/mL BSA, 30 μM acetyl-CoA, 50 μM ATP, and 10 mM KHCO3 Typically, a 10 μl reaction was run for 120 min at 25° C., and 10 μl of Transcreener stop and detect buffer was added and the combination incubated at room temp for an additional 1 hour. The data was acquired on a Envision Fluorescence reader (Perkinelmer) using a 620 excitation Cy5 FP general dual mirror, 620 excitation Cy5 FP filter, 688 emission (S) and a 688 (P) emission filter.
as §2

SMILES | IC50 [1] | IC50 [2]
CC(C)(C)n1cc2c(n1)C(=O)CC1(CCN(C(=O)c3ccc4[nH]c(C(N)=O)cc4c3)CC1)C2 [Example 32] | 1.5 nM | 8.1 nM
CC(C)(C)n1cc2c(n1)C(=O)CC1(CCN(C(=O)c3ccc4[nH]cc(C(N)=O)c4c3)CC1)C2 [Example 33] | 1 nM | 3.1 nM
CC(C)(C)n1cc2c(n1)C(=O)CC1(CCN(C(=O)c3ccc4cc(C(N)=O)[nH]c4c3)CC1)C2 [Example 34] | 2.8 nM | 8.1 nM
CC(C)(C)n1cc2c(n1)C(=O)CC1(CCN(C(=O)c3ccc4[nH]c(N)nc4c3)CC1)C2 [Example 35] | 1.4 nM | 12 nM
CCNC(=O)c1n[nH]c2ccc(C(=O)N3CCC4(CC3)CC(=O)c3nn(C(C)(C)C)cc3C4)cc12 [Example 36] | 1.7 nM | 4 nM
CNC(=O)c1n[nH]c2ccc(C(=O)N3CCC4(CC3)CC(=O)c3nn(C(C)(C)C)cc3C4)cc12 [Example 37] | 1.3 nM | 2.9 nM
CC(C)(C)n1cc2c(n1)C(=O)CC1(CCN(C(=O)c3ccc4[nH]nc(C(=O)NCC(F)(F)F)c4c3)CC1)C2 [Example 38] | 1.1 nM | 4.3 nM
CNc1nc2cc(C(=O)N3CCC4(CC3)CC(=O)c3nn(C(C)(C)C)cc3C4)ccc2[nH]1 [Example 39] | 1.5 nM | 9.8 nM
CNc1ccc2ccc(C(=O)N3CCC4(CC3)CC(=O)c3nn(C(C)(C)C)cc3C4)cc2n1 [Example 40] | 1.3 nM | 2.2 nM
CC(C)(C)n1cc2c(n1)C(=O)CC1(CCN(C(=O)c3ccc4c(C#N)n[nH]c4c3)CC1)C2 [Example 41] | 3.7 nM | 18 nM
CC(C)(C)n1cc2c(n1)C(=O)CC1(CCN(C(=O)c3cnc4c(Cl)c[nH]c4c3)CC1)C2 [Example 42] | 1.8 nM | 6.6 nM
CC(C)(C)n1cc2c(n1)C(=O)CC1(CCN(C(=O)c3ccc4[nH]nc(C#N)c4c3)CC1)C2 [Example 43] | 2.8 nM | 6.4 nM
CC(C)(C)n1cc2c(n1)C(=O)CC1(CCN(C(=O)c3cnc4ccc(C(N)=O)cc4c3)CC1)C2 [Example 44] | 5.4 nM | 31 nM
CC(C)(C)n1cc2c(n1)C(=O)CC1(CCN(C(=O)c3cnc4c(C(N)=O)c[nH]c4c3)CC1)C2 [Example 45, 6-[(2-tert-butyl-7-oxo-2,4,6,7-tetrahydro-1′H-spiro[indazole-5,4′-piperidin]-1′-yl)carbonyl]-1H-pyrrolo[3,2-b]pyridine-3-carboxamide] | 2.8 nM | 23 nM
CC(C)(C)n1cc2c(n1)C(=O)CC1(CCN(C(=O)c3cnc4ccc(OCC(N)=O)cc4c3)CC1)C2 [Example 46, 2-({3-[(2-tert-butyl-7-oxo-2,4,6,7-tetrahydro-1′H-spiro[indazole-5,4′-piperidin]-1′-yl)carbonyl]quinolin-6-yl}oxy)acetamide] | 3.8 nM | 14 nM
CC(C)(C)n1cc2c(n1)C(=O)CC1(CCN(C(=O)c3ccc4ccc(N)nc4c3)CC1)C2 [Example 47, 1′-[(2-aminoquinolin-7-yl)carbonyl]-2-tert-butyl-2,4-dihydrospiro[indazole-5,4′-piperidin]-7(6H)-one] | 1.3 nM | 5.3 nM
O=C1CC2(CCN(C(=O)c3ccc4[nH]ncc4c3)CC2)Cc2cn(C34CC(C3)C4)nc21 [Example 48, 2-bicyclo[1.1.1]pent-1-yl-1′-(1H-indazol-5-ylcarbonyl)-2,4-dihydrospiro[indazole-5,4′-piperidin]-7(6H)-one] | 5.6 nM | 32 nM
NC(=O)c1n[nH]c2ccc(C(=O)N3CCC4(CC3)CC(=O)c3c(cnn3C35CC(C3)C5)C4)cc12 [Example 49, 5-[(1-bicyclo[1.1.1]pent-1-yl-7-oxo-1,4,6,7-tetrahydro-1′H-spiro[indazole-5,4′-piperidin]-1′-yl)carbonyl]-1H-indazole-3-carboxamide] | 8.4 nM | 12 nM
